Source: article PMC12095047, “Transport of phenoxyacetic acid herbicides by PIN-FORMED auxin transporters” (Nature Plants, 2025)
“And” between values parts separate entries of the source, which are not always exact repeats. Identical values can stand only once. Like-named read-outs stand apart in the source and are kept apart here.

Columns and labels:
[1] = target: T1, PIN8 I51Y (Arabidopsis thaliana, UniProt Q9LFP6, I51Y); format: biochemical; settings: Michaelis–Menten fit
T1 construct: made in house
T1 sequence (Q9LFP6 whole entry I51Y): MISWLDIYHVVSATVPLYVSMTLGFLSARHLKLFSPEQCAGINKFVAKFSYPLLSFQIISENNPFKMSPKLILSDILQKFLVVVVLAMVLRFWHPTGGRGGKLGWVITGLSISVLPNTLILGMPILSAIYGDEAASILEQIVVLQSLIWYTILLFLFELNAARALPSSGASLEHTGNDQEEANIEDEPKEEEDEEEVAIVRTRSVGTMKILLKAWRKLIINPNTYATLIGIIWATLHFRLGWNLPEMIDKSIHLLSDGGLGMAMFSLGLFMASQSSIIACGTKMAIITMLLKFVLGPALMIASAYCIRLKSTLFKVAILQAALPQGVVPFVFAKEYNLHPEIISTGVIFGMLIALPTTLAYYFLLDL
Experimental: (§1) SSM, using a SURFE2R N1 from Nanion Technologies, was conducted as described. In brief, soy polar lipid mix (38% phosphatidyl choline, 30% phosphatidyl ethanolamine, 18% phosphatidyl inositol, 7% phosphatidic acid and 7% other soy lipids) and 1-palmitoyl-2-oleoyl-sn-glycero-3-phosphocholin were purchased from Avanti. Liposomes were prepared in Ringer solution without Ca^2+ (115 mM NaCl, 2.5 mM KCl, 1 mM NaHCO3, 10 mM HEPES pH7.4, 1 mM MgCl2) and homogenized using a Lipsofast (Avestin) with a […]. Triton X-100 was added to the liposomes to a final concentration of 1% (v/v). Protein was added to liposomes to a calculated lipid-to-protein ratio (LPR) of 10 unless stated otherwise. The detergent was removed using 400 mg ml^−1 Bio Beads (BioRad) overnight at 4 °C in a rotary shaker. Proteoliposomes were frozen in liquid nitrogen and kept at −80 °C until use. Proteoliposomes were diluted 1:5 in Ringer solution without Ca^2+, sonicated five times and then applied to the sensors by centrifugation (30 min, 3,000 g, 4 °C). Non-activating buffer was Ringer solution without Ca^2+ as described unless specified otherwise, and activating buffer contained the substrate of interest. In most instances we used a single-solution exchange experiment. In this case proteoliposomes, immobilized on the supported membrane, are kept in non-activating buffer as specified. At the beginning of the experiment the non-activating buffer is replaced with fresh identical non-activating buffer, and after 1 s, activating buffer (same buffer containing substrate) is added. After another second, the buffer is replaced with non-activating buffer again. Current response is recorded throughout the entire 3 s. For competition or inhibition, the respective compound was present in non-activating and activating solutions. Each experiment was performed on at least two individual sensors. On each sensor each measurement consists of three technical replicates where the mean is calculated. KD values were determined as described previously. Briefly, the binding current induced by 100 µM NPA was recorded in the presence of different concentrations of the substrate under investigation ranging between 0 µM and 1,000 µM present in the activating solution and the non-activating solution (Extended Data Fig. 5b). […] The maximum peak current was then plotted as a function of the concentration of the substrate under investigation and plotted against the degree of inhibition and fitted with a one-site binding model using GraphPad Prism V10.4.1 The half maximal concentration corresponds to the KD of the substrate under investigation.
(§2) The protocol for expression and purification of AtPIN8 protein (Uniprot: Q9LFP6) in lauryl maltose neopentyl glycol was described previously. All point mutants were generated using Q5 Site-Directed mutagenesis kit (New England Biolabs). The C-flat Holey Carbon grids (CF-1.2/1.3, Cu-300 mesh) were glow-discharged for 45 s at 15 mA in a GloQube Plus (Quorum). […] After 1 h of incubation on ice, the sample was centrifuged at 16,000 g for 15 min before blotting to remove precipitation. A drop of 4 µl of each sample was applied to the glow-discharged grids, blotted with a Vitrobot Mark IV (ThermoFisher Scientific) using the following settings (temperature 4 °C, 100% humidity, blot time of 4 s, blot force −1) and vitrified in liquid ethane.

[2] = target: T2, PIN8 Y150A (Arabidopsis thaliana, UniProt Q9LFP6, Y150A); format: biochemical; settings: for Peak current: Y150A, individual sensors
T2 construct: made in house
T2 sequence (Q9LFP6 whole entry Y150A): as the sequence (Q9LFP6 whole entry I51Y) above, with Y51I, Y150A counted along it
Experimental: as §1, §2

[3] = target: T3, PIN8 S55A (Arabidopsis thaliana, UniProt Q9LFP6, S55A); format: biochemical; settings: for Peak current: S55A, individual sensors
T3 construct: made in house
T3 sequence (Q9LFP6 whole entry S55A): as the sequence (Q9LFP6 whole entry I51Y) above, with Y51I, S55A counted along it
Experimental: as §1, §2

[4] = target: T4, PIN8 Y150F (Arabidopsis thaliana, UniProt Q9LFP6, Y150F); format: biochemical; settings: PIN8 Y150F, Michaelis–Menten fit
T4 construct: made in house
T4 sequence (Q9LFP6 whole entry Y150F): as the sequence (Q9LFP6 whole entry I51Y) above, with Y51I, Y150F counted along it
Experimental: as §1, §2

[5] = target: T5, PIN8 S146A (Arabidopsis thaliana, UniProt Q9LFP6, S146A); format: biochemical; settings: for Peak current: S146A, individual sensors
T5 construct: made in house
T5 sequence (Q9LFP6 whole entry S146A): as the sequence (Q9LFP6 whole entry I51Y) above, with Y51I, S146A counted along it
Experimental: as §1, §2

[6] = target: T6, PIN8 S55A/S146A (Arabidopsis thaliana, UniProt Q9LFP6, S146A/S55A); format: biochemical; settings: Michaelis–Menten fit
T6 construct: made in house
T6 sequence (Q9LFP6 whole entry S55A/S146A): as the sequence (Q9LFP6 whole entry I51Y) above, with Y51I, S55A, S146A counted along it
Experimental: as §1, §2

[7] = target: T7, PIN8 N223A (Arabidopsis thaliana, UniProt Q9LFP6, N223A); format: biochemical; settings: N223A
T7 construct: made in house
T7 sequence (Q9LFP6 whole entry N223A): as the sequence (Q9LFP6 whole entry I51Y) above, with Y51I, N223A counted along it
Experimental: as §1, §2

[8] = target: T8, PIN8 S266A (Arabidopsis thaliana, UniProt Q9LFP6, S266A); format: biochemical; settings: PIN8 S266A, Michaelis–Menten fit
T8 construct: made in house
T8 sequence (Q9LFP6 whole entry S266A): as the sequence (Q9LFP6 whole entry I51Y) above, with Y51I, S266A counted along it
Experimental: as §1, §2

[9] = target: T9, PIN8 (Arabidopsis thaliana, UniProt Q9LFP6); test: SSM electrophysiology, KD by inhibition of the NPA binding current
T9 construct: made in house
T9 sequence (Q9LFP6 1-367): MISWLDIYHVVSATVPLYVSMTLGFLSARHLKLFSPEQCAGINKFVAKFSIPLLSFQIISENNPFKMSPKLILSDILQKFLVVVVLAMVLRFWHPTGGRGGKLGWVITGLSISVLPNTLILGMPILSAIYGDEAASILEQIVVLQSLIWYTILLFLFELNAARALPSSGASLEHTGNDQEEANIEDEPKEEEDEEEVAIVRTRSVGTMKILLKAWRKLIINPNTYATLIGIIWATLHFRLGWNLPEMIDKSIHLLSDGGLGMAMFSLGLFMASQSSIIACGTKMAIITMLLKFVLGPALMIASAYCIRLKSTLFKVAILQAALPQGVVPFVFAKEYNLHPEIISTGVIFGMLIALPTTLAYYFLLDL
Experimental: as §1

[10] = read-out: EC50 of peak current response

O=C(O)COc1ccc(Cl)cc1 [4-CPA, 4-chlorophenoxyacetic acid]
Imax [1]: 3 ± 0.8 nA
EC50 [1, 10]: 1040 ± 252 µM
Imax ([2]; PIN8 Y150A, Michaelis–Menten fit): 5 ± 0.4 nA
EC50 ([2]; PIN8 Y150A, Michaelis–Menten fit, read-out: EC50 of peak current response): 2620 ± 263 µM
Peak current ([2]; 5 µM substrate): 0.004001 nA and 0.000964 nA and 0.005187 nA and 0.01098 nA
Peak current ([2]; 20 µM substrate): 0.001883 nA and 0.005268 nA and 0.002512 nA and 0.004292 nA
Peak current ([2]; 50 µM substrate): 0.02123 nA and 0.03866 nA and 0.02734 nA and 0.07514 nA
Peak current ([2]; 100 µM substrate): 0.1072 nA and 0.1421 nA and 0.1118 nA and 0.1489 nA
Peak current ([2]; 500 µM substrate): 0.7863 nA and 0.8129 nA and 0.8214 nA and 0.8974 nA
Peak current ([2]; 1000 µM substrate): 1.36 nA and 1.41 nA and 1.338 nA and 1.516 nA
Peak current ([2]; 2000 µM substrate): 2.1396 nA and 2.167 nA and 2.059 nA and 2.335 nA
Imax ([3]; PIN8 S55A, Michaelis–Menten fit): 11 ± 1 nA
EC50 ([3]; PIN8 S55A, Michaelis–Menten fit, read-out: EC50 of peak current response): 328 ± 15 µM
Peak current ([3]; 5 µM substrate): 0.2701 nA and 0.2897 nA and 0.3406 nA
Peak current ([3]; 20 µM substrate): 0.9459 nA and 0.8941 nA and 1.017 nA
Peak current ([3]; 50 µM substrate): 1.817 nA and 1.664 nA and 1.992 nA
Peak current ([3]; 100 µM substrate): 2.935 nA and 2.612 nA and 3.1231 nA
Peak current ([3]; 500 µM substrate): 6.5808 nA and 5.777 nA and 6.881 nA
Peak current ([3]; 1000 µM substrate): 8.474 nA and 7.36 nA and 8.719 nA
Peak current ([3]; 2000 µM substrate): 10.4298 nA and 8.998 nA and 10.8546 nA
Imax [4]: 5 ± 0.9 nA
EC50 [4, 10]: 710 ± 228 µM
Imax ([5]; PIN8 S146A, Michaelis–Menten fit): 8 ± 2 nA
Peak current ([5]; 5 µM substrate): 0.16 nA and 0.306 nA and 0.183 nA and 0.211 nA
Peak current ([5]; 20 µM substrate): 0.62 nA and 0.288 nA and 0.616 nA
Peak current ([5]; 50 µM substrate): 1.139 nA and 1.066 nA and 1.161 nA and 1.319 nA
Peak current ([5]; 100 µM substrate): 1.866 nA and 1.352 nA and 1.859 nA and 2.228 nA
Peak current ([5]; 500 µM substrate): 4.245 nA and 2.76 nA and 4.229 nA and 5.107 nA
Peak current ([5]; 1000 µM substrate): 5.47 nA and 3.518 nA and 5.371 nA and 6.513 nA
Peak current ([5]; 2000 µM substrate): 6.809 nA and 4.912 nA and 6.602 nA and 8.134 nA
Imax [6]: 11 ± 0.9 nA
EC50 [6, 10]: 81 ± 3 µM
fold-change difference to the respective EC50 of wildtype PIN8 [7]: completely abolishes binding
Imax [8]: 7 ± 2 nA
EC50 [8, 10]: 2100 ± 290 µM
inhibition at 5 µM ([9]; 5 µM substrate, 100 µM NPA, individual sensors, read-out: Rel. Inhibition of NPA peak currents): 3.03%
inhibition at 20 µM ([9]; 20 µM substrate, 100 µM NPA, individual sensors, read-out: Rel. Inhibition of NPA peak currents): 9.7%
inhibition at 50 µM ([9]; 50 µM substrate, 100 µM NPA, individual sensors, read-out: Rel. Inhibition of NPA peak currents): 16%
inhibition at 100 µM ([9]; 100 µM substrate, 100 µM NPA, individual sensors, read-out: Rel. Inhibition of NPA peak currents): 24.7%
inhibition at 500 µM ([9]; 500 µM substrate, 100 µM NPA, individual sensors, read-out: Rel. Inhibition of NPA peak currents): 58.6%
inhibition at 1000 µM ([9]; 1000 µM substrate, 100 µM NPA, individual sensors, read-out: Rel. Inhibition of NPA peak currents): 73.5%
inhibition at 2000 µM ([9]; 2000 µM substrate, 100 µM NPA, individual sensors, read-out: Rel. Inhibition of NPA peak currents): 82.1%
inhibition at 5000 µM ([9]; 5000 µM substrate, 100 µM NPA, individual sensors, read-out: Rel. Inhibition of NPA peak currents): 96.6%
lower binding affinity compared to IAA ([9]; KD compared to IAA): ~ 8 fold
Kd ([9]; Peak current, sheet F2A (Fig. 2a, KD of substrate binding), individual sensors): 319 µM and 330 µM and 262 µM
